In paper PMC9928118, “Funneling modulatory peptide design with generative models: Discovery and characterization of disruptors of calcineurin protein-protein interactions” (PLOS Computational Biology, 2023):
Each block holds one sequence with its values, some of them ahead of it.

Test system: GST-tagged Cn
Experiment: PEPperPRINT peptide microarray binding assay with GST-tagged Cn
Description: We then estimated in-silico the binding strength of the various peptides to Cn by template-based docking followed by flexible backbone refinement using Modeller and PepCrawler (Figs 4 and S4). In parallel, we performed a medium-throughput qualitative binding assay using a PEPperPRINT peptide microarray to evaluate the direct binding of Cn to selected peptides (Figs 4 and S5, S3 Data).
Fig 4 Medium-throughput filtering by structural modeling and microarray screening. (a) Depiction of the structural modeling protocol: after alignment to the known PxIxIT binding site, an efficient flexible backbone structure refinement algorithm is applied to estimate the docking energy. […] (c) Coefficients of the equivalent single-site model fitted by sparse linear regression, shown in weight logo representation. […] Colors indicate physical property (black = hydrophobic, red = negatively charged, etc.). (d) Per-gene distribution of docking scores across natural fragments (lower is better). […] (e) Overview of the microarray screening. Peptides are printed on the chip (two circles per peptide). After pouring of Cn and subsequent washing, fluorescent-tagged, a Cn-targeting antibody is overlaid and an image is taken. Fluorescent spots indicate strong Cn binders. (f) Scatter plot of the sequence likelihood (normalized by length, higher is better) against fluorescence level (higher is better, see Methods for details of the data analysis).
In parallel, selected peptides were tested for Cn binding on a chip microarray (PEPperPRINT). 786 peptides were printed on the chip and were incubated with GST-tagged Cn overnight at 4°C. Following extensive washing, binding was detected by applying a fluorescently labeled (Alexa-Fluor 647) GST antibody. […] The experiment was repeated five times, and Z-normalized fluorescence levels were determined following post-processing of the raw data (Methods, S5A, S5B and S5C Fig).
The peptide array was prepared as a custom array pepper chip (PEPperPRINT). For binding detection, 1mg/ml GST-tagged Cn was incubated overnight on the microarray at 4°C. Following extensive washing, fluorescently labeled (Alexa-Fluor 647) GST-antibody. […] The experiment was repeated five times. Each scan was analyzed as follows: a grid was overlaid using the border HA markers to determine regions of interest (ROI) for each peptide (two ROIs per peptide) and the logarithm of the average fluorescence intensity was computed for each ROI. […] To remove spatial artifacts, a position-dependent baseline fluorescence was fitted using a second-order polynomial, and subtracted to the fluorescence. Fluorescence levels were next averaged over the two ROI for each peptide and Z-normalized. […] The Z-scores were averaged over the five repetitions to yield one fluorescence score per peptide.

[1] = GST-tagged Cn, max over the chip locations
[2] = GST-tagged Cn, mean over the chip locations
[3] = GST-tagged Cn, max over the spots on the chip (two locations)
[4] = GST-tagged Cn, mean over the spots on the chip (two locations)
[5] = max over the chip locations listed for the peptide (two spots)
[6] = mean over the chip locations listed for the peptide (two spots)
[7] = GST-tagged Cn, max over the spots named in Location on chip
[8] = GST-tagged Cn, mean over the spots named in Location on chip
[9] = GST-tagged Cn, max over the chip spots listed under Location on chip
[10] = GST-tagged Cn, mean over the chip spots listed under Location on chip
[11] = max over the spots listed under Location on chip
[12] = mean over the spots listed under Location on chip

Sequence: KKMSPPCISIDPAPNN [SeqRBMlowT_7656]
Chip Fluorescence (max) [1]: 0.1833
Chip Fluorescence (mean) [2]: -1.098

Sequence: NDHNTNDWSFELGQTV [Seqshuffled_9000]
Chip Fluorescence (max) [5]: 3.477
Chip Fluorescence (mean) [6]: 1.051

Sequence: GGESQPGIVVHVCEED [SeqRBMlowT_2505]
Chip Fluorescence (max) [7]: 1.711
Chip Fluorescence (mean) [8]: 0.4381

Sequence: QSRSCSHPNRSPERVT [SeqRBM_5791]
Chip Fluorescence (max) [1]: -0.7515
Chip Fluorescence (mean) [2]: -1.165

Sequence: VYWSNPQFIVKLEMVD [SeqRBM_6287]
Chip Fluorescence (max) [11]: 2.588
Chip Fluorescence (mean) [12]: 1.027

Sequence: SSRSSSRPARSPERKP [SeqRGA2_Fusarium_oxysporum]
Chip Fluorescence (max) [5]: 4.629
Chip Fluorescence (mean) [6]: 0.8375

Sequence: TFTDNPQYTIKLVETD [SeqRBM_9774]
Chip Fluorescence (max) [9]: 0.9523
Chip Fluorescence (mean) [10]: 0.09387

Sequence: MLSIRPSARLKIPQHR [SeqRBM_1889]
Chip Fluorescence (max) [7]: 1.553
Chip Fluorescence (mean) [8]: -0.6579

Sequence: TFWTNPQYVITVTDPD [SeqRBMlowT_3207]
Chip Fluorescence (max) [9]: 0.3855
Chip Fluorescence (mean) [10]: -0.6772

Sequence: HSKFIPKLSLQSPVHH [SeqRBMlowT_1695]
Chip Fluorescence (max) [3]: 1.29
Chip Fluorescence (mean) [4]: -0.2065

Sequence: PGLYDNALGIEQFTLS [SeqRBMlowT_2874]
Chip Fluorescence (max) [5]: 13.8972
Chip Fluorescence (mean) [6]: 1.628

Sequence: TFWTNPQYRMVLDEDD [SeqRBM_7411]
Chip Fluorescence (max) [5]: 5.3741
Chip Fluorescence (mean) [6]: 1.404

Sequence: TFWTNPQFRIKLEDPD [SeqRBMlowT_91]
Chip Fluorescence (max) [11]: 2.652
Chip Fluorescence (mean) [12]: 0.4239

Sequence: QPPQNPVATVSTAHHQ [SeqRBM_6519]
Chip Fluorescence (max) [7]: 1.708
Chip Fluorescence (mean) [8]: -0.008148

Sequence: RTYINPFVTFVDGGNK [SeqRBMlowT_3664]
Chip Fluorescence (max) [1]: 0.3337
Chip Fluorescence (mean) [2]: -0.6971

Sequence: GTSGGFPQTDRSHKKQ [SeqRBM_413]
Chip Fluorescence (max) [5]: 3.637
Chip Fluorescence (mean) [6]: -0.2581

Sequence: LKKTYLRREMHGCYNH [Seqrandom_9958]
Chip Fluorescence (max) [7]: 1.4154
Chip Fluorescence (mean) [8]: 0.777

Sequence: TSPDQPCIDVHQSESE [SeqRBM_4309]
Chip Fluorescence (max) [11]: 2.7949
Chip Fluorescence (mean) [12]: 0.9383

Sequence: RSPGTFPLELSGHKKQ [SeqRBMlowT_6356]
Chip Fluorescence (max) [3]: 1.326
Chip Fluorescence (mean) [4]: -0.7748

Sequence: PSLYENALGMEAFTIS [SeqRBMlowT_4846]
Chip Fluorescence (max) [7]: 1.442
Chip Fluorescence (mean) [8]: 0.7319

Sequence: TFWTNPQFRIKLEEVD [SeqRBMlowT_2987]
Chip Fluorescence (max) [5]: 3.672
Chip Fluorescence (mean) [6]: 2.469

Sequence: VQLKIPQLRVSSVSKP [SeqLCORL_2_Sus_scrofa]
Chip Fluorescence (max) [9]: 0.981
Chip Fluorescence (mean) [10]: -0.5484

Sequence: RAYINPFMQFQDGGQR [SeqRBMlowT_1515]
Chip Fluorescence (max) [7]: 1.533
Chip Fluorescence (mean) [8]: -0.1627

Sequence: DSLEGATIVITLTEGK [SeqRBM_8933]
Chip Fluorescence (max) [5]: 3.74
Chip Fluorescence (mean) [6]: 0.5914

Sequence: RTPGTALLTLRGHKKQ [SeqRBMlowT_5808]
Chip Fluorescence (max) [1]: 0.1527
Chip Fluorescence (mean) [2]: -0.8232

Sequence: STSSLPTFSFSSPQPS [SeqRBMlowT_3925]
Chip Fluorescence (max) [3]: 1.1241
Chip Fluorescence (mean) [4]: -0.7201

Sequence: HVSSSPDITITPTQHR [SeqRBMlowT_702]
Chip Fluorescence (max) [3]: 1.204
Chip Fluorescence (mean) [4]: 0.3347

Sequence: TFWTNPQFKVKLEDPD [SeqRBMlowT_4293]
Chip Fluorescence (max) [9]: 0.7466
Chip Fluorescence (mean) [10]: -0.6386

Sequence: TFWTNPQYRITVTDED [SeqRBMlowT_7478]
Chip Fluorescence (max) [9]: 0.9083
Chip Fluorescence (mean) [10]: -0.5067

Sequence: SSMAPPAINIDFAPTN [SeqRBMlowT_1806]
Chip Fluorescence (max) [7]: 1.404
Chip Fluorescence (mean) [8]: 0.3806

Sequence: KAYINPFMTFIEGGRK [SeqRBMlowT_3627]
Chip Fluorescence (max) [5]: 4.329
Chip Fluorescence (mean) [6]: 0.4696

Sequence: ADEAQPGIVVHVCELP [SeqRBMlowT_119]
Chip Fluorescence (max) [7]: 1.734
Chip Fluorescence (mean) [8]: -0.1242

Sequence: AINASPEIVVGYDELP [SeqRBM_6435]
Chip Fluorescence (max) [7]: 1.452
Chip Fluorescence (mean) [8]: 1.232

Sequence: STSSLPTFSFSSPLPS [SeqRBMlowT_3929]
Chip Fluorescence (max) [7]: 1.5
Chip Fluorescence (mean) [8]: -1.084

Sequence: RQPGTAPANLVGHKKQ [SeqRBM_2906]
Chip Fluorescence (max) [9]: 0.7504
Chip Fluorescence (mean) [10]: -0.5221

Results, then the sequence that gave them:

Chip Fluorescence (max) [3]: 1.085
Chip Fluorescence (mean) [4]: -0.04024
Sequence: QLLAVPALSVDRKGPK [SeqCACUL1_Dipodomys_ordii]

Chip Fluorescence (max) [9]: 0.5195
Chip Fluorescence (mean) [10]: -0.7647
Sequence: TFWTNPQYRIKLTEPD [SeqRBMlowT_234]

Chip Fluorescence (max) [5]: 3.993
Chip Fluorescence (mean) [6]: 1.569
Sequence: KSSSSPSASINVPQSN [SeqRBM_1871]

Chip Fluorescence (max) [9]: 0.4069
Chip Fluorescence (mean) [10]: -0.3301
Sequence: RNPGQALLELRGHSAS [SeqRBMlowT_6125]

Chip Fluorescence (max) [3]: 1.011
Chip Fluorescence (mean) [4]: -0.2929
Sequence: TFWTNPQFVTLVKDGD [SeqRBM_8117]

Chip Fluorescence (max) [11]: 2.726
Chip Fluorescence (mean) [12]: 0.3874
Sequence: KAYMCPFMSFIDGGQR [SeqRBMlowT_3665]

Chip Fluorescence (max) [9]: 0.3864
Chip Fluorescence (mean) [10]: -0.7137
Sequence: ADEANPEITVTPAELP [SeqRBMlowT_396]

Chip Fluorescence (max) [3]: 1.316
Chip Fluorescence (mean) [4]: -0.7354
Sequence: RNPERPKLHLQGHLVA [SeqRBM_9016]

Chip Fluorescence (max) [5]: 9.6825
Chip Fluorescence (mean) [6]: 0.161
Sequence: TTAMNPQFFVQIPRTA [SeqCAPN11_Daphnia_magna_2]

Chip Fluorescence (max) [11]: 3.328
Chip Fluorescence (mean) [12]: 1.497
Sequence: TFWTNPQFRLKIPQVD [SeqRBMlowT_93]

Chip Fluorescence (max) [9]: 0.5354
Chip Fluorescence (mean) [10]: -0.2316
Sequence: SPSIVANADLVVPYSE [SeqRBM_1237]

Chip Fluorescence (max) [7]: 1.5542
Chip Fluorescence (mean) [8]: 0.5719
Sequence: TFWHNPQYVINLEDPD [SeqCAPN11_Anopheles_dirus]

Chip Fluorescence (max) [3]: 1.208
Chip Fluorescence (mean) [4]: -0.4648
Sequence: TFWTNPQFKVTLEEPD [SeqRBMlowT_2957]

Chip Fluorescence (max) [9]: 0.7156
Chip Fluorescence (mean) [10]: -0.9321
Sequence: KFPGAEFLPQTLTPPP [Seqshuffled_9792]

Chip Fluorescence (max) [7]: 1.646
Chip Fluorescence (mean) [8]: -0.634
Sequence: HVSSSPRIAITPTQHR [SeqRBMlowT_8885]

Chip Fluorescence (max) [11]: 2.848
Chip Fluorescence (mean) [12]: -0.8116
Sequence: STKSSGRPSRSPERAS [SeqRGA2_Colletotrichum_sublineola]

Chip Fluorescence (max) [1]: 0.1343
Chip Fluorescence (mean) [2]: -0.9005
Sequence: STSSLPTFSFSSPASS [SeqRBMlowT_1605]

Chip Fluorescence (max) [3]: 0.9892
Chip Fluorescence (mean) [4]: -0.732
Sequence: VSTDAPHSTRNDSGGP [SeqRBM_8532]

Chip Fluorescence (max) [7]: 1.84
Chip Fluorescence (mean) [8]: -0.4239
Sequence: TFWTNPQFKITLEDPD [SeqRBMlowT_205]
